Eight molecules from ChEMBL document CHEMBL1201862, “PubChem BioAssay data set” (2004) can be followed below.

Each structure is given as a SMILES string.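 Cells were grown in 96-well plates and exposed to each compound for 48 hours at five concentrations; endpoints were interpolated linearly between bracketing concentrations, or set to the highest concentration if not reached. GI50: concentration for 50% inhibition of growth.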 Active and inactive are the calls of the source. Rule as the data show it: active = GI50 up to about 1.1 µM and inactive = higher.

Among the test systems are KM12; HCT-15; EKVX; SW-620; LOX IMVI; SN12C; SNB-75; ACHN; OVCAR-8; NCI-H226; TK-10; NCI-H23; A498; HOP-92; SK-OV-3; NCI-H522; UACC-62.
Assay in all cases: inhibition of tumour cell growth, NCI panel, 48 h

Regarding `O=c1[nH]c(=O)n(C2OC(CO)C(O)C2O)cc1/N=N/NCc1ccccc1` (stereo unspecified), the GI50 in the test on KM12 was > 100 µM (inactive); in the test on HCT-15, more than 65 µM; in the test with EKVX, > 100 µM (inactive); in the test with SW-620, > 53.5 µM (inactive); in the test on LOX IMVI, > 63.8 µM (inactive); in the test with SN12C it was > 100 µM (inactive). In addition, the GI50 in the test with SNB-75, in the test on ACHN, in the test with OVCAR-8, in the test on NCI-H226, in the test on TK-10 and in the test on NCI-H23 was > 100 µM (inactive) throughout. Moreover, the GI50 in the test with A498, in the test on HOP-92, in the test with SK-OV-3, with NCI-H522 and with UACC-62 was > 100 µM (inactive) each time.
As for `CC1CCC2[C@@H](C)COC3O[C@]4(C)CCC1C32OO4` (stereo partly specified), the GI50 with KM12 is > 100 µM (inactive); in the test with HCT-15, more than 100 µM; with EKVX, > 100 µM (inactive); in the test on SW-620, > 100 µM (inactive); in the test on LOX IMVI, > 100 µM (inactive); in the test on SN12C, > 100 µM (inactive). In addition, the GI50 in the test on SNB-75 is 91.6 µM (inactive); in the test on ACHN it was > 100 µM (inactive); with OVCAR-8 it was > 100 µM (inactive); in the test with NCI-H226, > 100 µM (inactive); in the test on TK-10, > 100 µM (inactive); in the test on NCI-H23 it was > 100 µM (inactive). Besides, the GI50 with A498, with HOP-92, in the test with SK-OV-3, in the test on NCI-H522 and in the test on UACC-62 was > 100 µM (inactive) throughout.
Regarding `COC(=O)C1=C(C)N(NC(=O)OC(C)(C)C)C(=O)C1=P(c1ccccc1)(c1ccccc1)c1ccccc1`, the GI50 with KM12 was 64 µM (inactive); with HCT-15, more than 100 µM; in the test on EKVX it was > 100 µM (inactive); with SW-620, > 100 µM (inactive); in the test with LOX IMVI it was > 100 µM (inactive); in the test on SN12C, > 100 µM (inactive). Besides, the GI50 in the test with SNB-75, in the test on ACHN, in the test on OVCAR-8, with NCI-H226, in the test on TK-10 and in the test with NCI-H23 was > 100 µM (inactive) each time. Besides, the GI50 with A498 is > 100 µM (inactive); in the test on HOP-92, > 100 µM (inactive); with SK-OV-3, > 100 µM (inactive); with NCI-H522 it was 75.5 µM (inactive); in the test with UACC-62, > 100 µM (inactive).
For `CCN(CC)C1CC(O[C@H]2C[C@](O)(C(=O)CO)Cc3c(O)c4c(c(O)c32)C(=O)c2c(OC)cccc2C4=O)OC(C)C1O` (stereo partly specified), the GI50 is 0.0577 µM (active) in the test on KM12; 0.245 µM in the test on HCT-15; 0.082 µM (active) in the test with EKVX; < 0.0219 µM (active) with SW-620; < 0.0259 µM (active) in the test on LOX IMVI; 0.045 µM (active) in the test with SN12C. Besides, the GI50 is 0.028 µM (active) in the test on SNB-75; 0.0316 µM (active) in the test with ACHN; < 0.0262 µM (active) with OVCAR-8; 0.019 µM (active) in the test on NCI-H226; 0.0881 µM (active) with TK-10; 0.0491 µM (active) with NCI-H23. In addition, the GI50 with A498 is 0.0236 µM (active); in the test with HOP-92, 0.0522 µM (active); in the test with SK-OV-3 it was 0.299 µM (active); with NCI-H522 it was < 0.0256 µM (active); in the test with UACC-62, 0.0431 µM (active).
As to `CCOc1ccc(OCC(=O)O)c2c1CCCC2=O`, the GI50 with KM12 is > 100 µM (inactive); in the test on HCT-15, more than 100 µM; in the test with EKVX, > 100 µM (inactive); in the test on SW-620, > 100 µM (inactive); with LOX IMVI, > 100 µM (inactive); with SN12C it was > 100 µM (inactive). For the same molecule, the GI50 in the test on SNB-75, in the test with ACHN, in the test with OVCAR-8, in the test on NCI-H226, in the test on TK-10 and in the test on NCI-H23 was > 100 µM (inactive) throughout. The GI50 in the test on A498, in the test with HOP-92, with SK-OV-3, in the test with NCI-H522 and in the test with UACC-62 was > 100 µM (inactive) throughout.
For `CCN(CC)CCOC(c1ccccc1)c1ccccc1.CCOC(=O)Nc1ccc(S(=O)(=O)OC)cc1.CCOC(=O)Nc1ccc(S(=O)(=O)OC)cc1.Nc1ccc(C(=O)O)c(O)c1`, the GI50 was > 100 µM (inactive) in the test on KM12; more than 100 µM with HCT-15; > 100 µM (inactive) in the test on EKVX; > 100 µM (inactive) with SW-620; > 100 µM (inactive) in the test on LOX IMVI; > 100 µM (inactive) in the test on SN12C. Moreover, the GI50 in the test on SNB-75, in the test with ACHN, in the test with OVCAR-8, in the test on NCI-H226, in the test on TK-10 and with NCI-H23 was > 100 µM (inactive) throughout. Besides, the GI50 with A498, in the test on HOP-92, with SK-OV-3, in the test with NCI-H522 and in the test with UACC-62 was > 100 µM (inactive) each time.
For the molecule `CCN(CC)CCCC(C)Nc1c2cc(OC)cc(C)c2nc2c(C)c(Cl)ccc12` (stereo unspecified), the GI50 in the test on KM12 was 1.64 µM (inactive); in the test with HCT-15, 1.78 µM; with EKVX it was 1.85 µM (inactive); in the test with SW-620, 1.85 µM (inactive); in the test on LOX IMVI, 2.02 µM (inactive); with SN12C, 1.57 µM (inactive). Besides, the GI50 in the test with SNB-75 is 1.68 µM (inactive); in the test on ACHN it was 1.69 µM (inactive); in the test with OVCAR-8, 1.78 µM (inactive); in the test with NCI-H226, 1.82 µM (inactive); in the test with TK-10, 1.73 µM (inactive); in the test with NCI-H23 it was 1.48 µM (inactive). Also, the GI50 in the test on A498 is 2.43 µM (inactive); in the test on HOP-92, 1.22 µM (inactive); in the test with SK-OV-3 it was 1.67 µM (inactive); in the test with NCI-H522, 1.67 µM (inactive); in the test with UACC-62, 1.79 µM (inactive).
`CCN(CC)/C(=C\Cl)Nc1ccccn1.[O-][Cl+3]([O-])([O-])O`: the GI50 is > 100 µM (inactive) in the test with KM12; more than 100 µM with HCT-15; > 100 µM (inactive) with EKVX; > 100 µM (inactive) in the test on SW-620; > 100 µM (inactive) in the test with LOX IMVI; > 100 µM (inactive) in the test on SN12C. Moreover, the GI50 with SNB-75, with ACHN, in the test on OVCAR-8, with NCI-H226, with TK-10 and with NCI-H23 was > 100 µM (inactive) in each case. Moreover, the GI50 in the test on A498, with HOP-92, in the test on SK-OV-3, with NCI-H522 and in the test on UACC-62 was > 100 µM (inactive) each time.
